Assay results taken from patent US7425579B2, “Methods for inhibiting activity of polyamine transporters” (Universite Laval, priority 1998, dated 2008).

Assays:
CHO-TOR cells = experiment: Potentiation of DFMO-induced cytostasis in CHO-TOR cells; format: cell-based, Chinese hamster; conditions: 2 mM DFMO; 4 d
Procedure: FIGS. 9A and 9B are graphs showing that potentiation of DFMO-induced cytostasis by a compound used in a method according to a preferred embodiment of the invention requires a functional polyamine transport system. In particular, CHO-TOR cells (A) and their polyamine transport-deficient mutant subline CHO-MG (B) were grown in medium containing 1 mM aminoguanidine and the indicated concentration of spermidine, in the presence of 2 mM DFMO (●), BNSD-X (□), DFMO+BNSD-X (▪), or vehicle only (∘). Cells were harvested after 4 d for determination of total DNA/well. Data are presented as the mean±SD for triplicate cultures from one representative experiment;
To determine the ability of polyamine transport antagonists to potentiate DFMO-induced inhibition of cell proliferation in the presence of exogenous polyamines, cells were grown for the indicated period in growth medium supplemented with 1 mM aminoguanidine, and either DFMO (1 to 5 mM), the indicated transport inhibitor (50 or 100 μM), or the combination thereof, as well as increasing concentrations of spermidine (0.1 to 300 μM). Fresh medium was added every other day, and cell mass was determined at various time points during the period of exponential growth, or at the end of the experimental period. […]

T-47D cells [1] = experiment: Reversal of DFMO-induced cytostasis by exogenous spermidine in T-47D cells; format: cell-based, human; conditions: 50 μM BNSD-X (167-fold excess over 0.3 μM spermidine); 2 mM DFMO
Procedure: FIGS. 6A, 6B, 6C and 6D are graph showing that antagonism of DFMO-induced cytostasis by exogenous spermidine depends on the polyamine and linker structure of the compounds used in a method according to a preferred embodiment of the invention. In particular, T-47D cells were grown for 8-9 d with the indicated concentrations of spermidine in medium containing 1 mM aminoguanidine, in the presence of DFMO (●), transport inhibitor (□), DFMO plus transport inhibitor (▪), or in the absence of either agent (∘), and total DNA content per culture was then determined. Panels A, B, C, and D describe the effect of BNSD-X, BSD-X, BNSD-3 and BSD-3, respectively. Data are presented as the mean±SD for triplicate cultures from one out of at least two identical experiments;
FIGS. 8A and 8B are graphs representing the time course of the effect of a compound used in a method according to a preferred embodiment of the invention on rescue of DFMO-induced cytostasis by exogenous spermidine. In particular, at time zero, T-47D (panel A) or CHO-K1 (panel B) were seeded at 1×10^4 or 5×10^3 cells/well, respectively, in medium containing 1 mM aminoguanidine, plus either 0.3 μM spermidine (Spd, ●), 2 mM DFMO (□), Spd+DFMO (▪), 50 μM (A) or 100 μM (B) BNSD-X (Δ), BNSD-X+Spd (▴), BNSD-X+DFMO (□), BNSD-X+Spd+DFMO (▾), or vehicle only (∘). At the indicated time, total DNA content/well was determined. Data are presented as the mean±SD for triplicate cultures from one representative experiment;
To determine the ability of polyamine transport antagonists to potentiate DFMO-induced inhibition of cell proliferation in the presence of exogenous polyamines, cells were grown for the indicated period in growth medium supplemented with 1 mM aminoguanidine, and either DFMO (1 to 5 mM), the indicated transport inhibitor (50 or 100 μM), or the combination thereof, as well as increasing concentrations of spermidine (0.1 to 300 μM). Fresh medium was added every other day, and cell mass was determined at various time points during the period of exponential growth, or at the end of the experimental period. For the latter experiments, the FBS supplement was replaced with dextran-coated charcoal-treated FBS (5%, v/v) plus 0.5 μg/ml insulin in the case of T-47D, ZR-75-1 and MCF-7 cells (U.S. Pat. No. 6,083,496).

T-47D cells [2] = experiment: Effect of inhibitors on T-47D cell proliferation (DNA content); format: cell-based, human; conditions: T-47D cells, 9 d
Procedure: FIGS. 3A and 3B are graphs showing the effect compounds used in a method according preferred embodiment of the present invention, on cell proliferation. In particular, they relate to the effect of selected BSD and BNSD derivatives on T-47D cell proliferation. Cells were incubated for 9 d with the indicated concentrations of BSD-2 (∘), BNSD-4 (●), BSD-4 (□), BNSD-6 (▪), BSD-10 (Δ), BSD-4-ene (▴) and BSD-4-yne (▾) in medium containing 1 mM aminoguanidine, and total DNA content per culture was then determined. B, Effect of BNSD-X (N,N,N′,N′-tetrakis-(3-aminopropyl)-p-diaminoxylene) on cell proliferation in various mammalian cell lines. Jurkat (∘), LAN-1 (●), L1210 (□), T-47D (▪), ZR-75-1 (Δ) and MDA-MB-231 (▴) cells were grown to near confluency or saturation (for 4 to 11 d according to the cell line considered) with the indicated concentrations of BNSD-X in the presence of 1 mM aminoguanidine, and total DNA content per culture was then determined. Data are given as the mean±SD for triplicate cultures from one out of at least two identical experiments;
FIGS. 4A and 4B are graphs showing how compounds used in a method according to a preferred embodiment are differentially sensitive to degradation by BSAO (bovine serum amine oxidase). In particular, T-47D cells were incubated for 9 d with the indicated concentrations of BSD-X (∘), BNSD-X (●), BSD-3 (□) or BNSD-3 (▪) in the absence (A) or presence of 1 mM aminoguanidine (B), and total DNA content per culture was then determined. Data are presented as the mean±SD for triplicate cultures from one representative experiment;
The effect of transport inhibitors on cell proliferation was evaluated by determination of cell number (L1210, Jurkat) using electronic sizing with a Model ZM Coulter counter (Coulter Electronics, Hialeah, Fla.), or DNA content per culture (for all other cell lines) with the 3,5-diaminobenzoic acid assay. […] Cytotoxicity of the inhibitors was determined in the presence or absence of aminoguanidine, and was confirmed by a trypan blue exclusion assay.

CD-1 mice = experiment: Chronic toxicity of BNSD-X, 1% in drinking water for 14 d; format: in vivo; conditions: 1% (w/v) in drinking water
Procedure: To assess the relative toxicity of BNSD-X, the drug was administered as a 1% (w/v) solution in the drinking water to CD-1 mice with ad libitum access for 14 d. Mice were weighed every other day during the experiment. At the end of the experiment, mice were sacrificed, and organs (kidneys, liver, and spleen) were immediately weighed. Organs were then saved in 10% formalin for morphological examination by an in-house pathologist at the CHUL Research Center (Quebec City, Canada). Acute and subacute oral toxicity of BNSD-X was also separately determined by administering the drug by gavage (0-5 g/kg body weight).
The chronic toxicity of BNSD-X was next evaluated by allowing CD-1 mice to drink a 1% (w/v) solution of the drug for 14 d, and then sacrificing animals for the histological examination of the liver, kidneys and spleen.

[3] = Plasma level of BNSD-X after gavage; format: in vivo, mice; conditions: solid BNSD-X, 1 g/kg body weight by gavage

NCCCN(CCCN)Cc1ccc(CN(CCCN)CCCN)cc1 [28a, N,N,N′,N′-tetrakis-(3-aminopropyl)-p-diaminoxylene]
potentiation of DFMO-induced cytostasis in the absence of exogenous spermidine, CHO-TOR (CHO-TOR cells): observed in the parental cell line | effect on growth inhibition by DFMO, T-47D (T-47D cells [1]): did not markedly increase the extent of growth inhibition observed with DFMO alone | effect of aminoguanidine addition on the cytotoxicity of the dimer (T-47D cells [2]; 1 mM aminoguanidine): abolished most of the cytotoxicity | cytotoxicity in the absence of aminoguanidine (T-47D cells [2]; BSAO active): considerably more cytotoxic than their spermidine-like homologs | behavior and general body appearance (CD-1 mice): no incidence on the behavior nor general body appearance of the animals | histological morphology of the liver, kidney and spleen (CD-1 mice; light microscopy): no observable differences | plasma half-life [3]: > 6 h | plasma concentration after gavage ([3]; after 1 h, n=5): 450 ± 71 nM
